Results from patent US9097667B2, “Fluorescent compounds” (BIOTIUM, INC., priority 2007, dated 2015).

Test: Absorption and emission spectra of the dyes (λabs/λem in H2O)
Assay type: physicochemical
Conditions: Table 5, coumarin-based fluorescent groups
Source text: For compounds of Formula II, it is well known to a person of skill in the art to select the bridging unit Y, in combination with a specific embodiment of a moiety of Formula F, in combination with a specific embodiment of moiety Y, and in combination with specific substituents such that the maximal fluorescence excitation wavelength of the compound ranges from about 350 to about 1200 nm. Standard analysis well known in the art is used to obtain the absorption and emission spectra of the dyes in order to ascertain the absorption maximal wavelength and the maximal fluorescence emission wavelength. Any combinations of the above described groups may be used to form a compound of the invention with a maximal fluorescence excitation wavelength of about 550 nm, about 560 nm, about 570 nm, about 580 nm, about 590 nm, about 600 nm, about 610 nm, about 620 nm, about 615 nm, about 620 nm, about 625 nm, about 630 nm, about 635 nm, about 640 nm, about 650 nm, about 655 nm, about 660 nm, about 665 nm, about 670 nm, about 675 nm, about 680 nm, about 685 nm, about 690 nm, about 695 nm, about 700 nm, about 705 nm, about 710 nm, about 715 nm, about 720 nm, about 725 nm, about 730 nm, about 735 nm, about 740 nm, about 745 nm, about 750 nm, about 755 nm, about 760 nm, about 765 nm, about 770 nm, about 775 nm, about 780 nm, about 790 nm, about 800 nm, about 810 nm, about 820 nm, about 830 nm, about 840 nm, about 850 nm, about 860 nm, about 870 nm, about 880 nm, about 890 nm, about 900 nm, about 910 nm, about 920 nm, about 930 nm, about 940 nm, about 950 nm, about 960 nm, about 970 nm, about 980 nm, about 990 nm, about 1000 nm, about 1020 nm, about 1040 nm, about 1060 nm, about 1080 nm, about 1100 nm, about 1120 nm, about 1140 nm, about 1160 nm, about 1180 nm, or about 1200 nm. The moieties described above may be used in any combination. The maximal fluorescence excitation wavelength of the dye is typically the wavelength at which the dye has a maximal absorption or maximal optical density, which excites the dye to fluoresce. In some embodiments, the compound of Formula II has an absorption maximal wavelength at >670 nm. In one embodiment, the absorption maximal wavelength is at >700 nm. According to another embodiment, the absorption maximal wavelength is at >800 nm.

| λabs [nm] | λcm [nm] | SMILES |
| --- | --- | --- |
| 416 | 465 | COCCOCCOCCOCCOCCOCCOCCOCCOCCOCCOCCOCCN(CCCCCC(=O)ON1C(=O)CCC1=O)C(=O)c1cc2cc(F)c(O)c(F)c2oc1=O [Compound No. 52] |
| 346 | 442 | COCCOCCOCCOCCOCCOCCOCCOCCOCCOCCOCCOCCN(CCCCCC(=O)ON1C(=O)CCC1=O)C(=O)Cc1c(C)c2cc(S(=O)(=O)O)c(N)cc2oc1=O [Compound No. 51] |
| 353 | 442 | C=C(Cc1c(C)c2ccc(N)cc2oc1=O)N(CCCCCC(=O)ON1C(=O)CCC1=O)CCOCCOCCOCCOCCOCCOCCOCCOCCOCCOCCOCCOC [compound 50] |
| 430 | 545 | COCCOCCOCCOCCOCCOCCOCCOCCOCCOCCOCCOCCOCCOCCOCCOCCOCCOCCOCCOCCOCCOCCOCCOCCN(CCCCCC(=O)ON1C(=O)CCC1=O)C(=O)CCCCCN1c2cc3oc(=O)cc(C(F)(F)F)c3cc2C(CS(=O)(=O)O)=CC1(C)C [compound 53] |

Test: Total fluorescence vs. degree of labeling (DOL) of protein dye-conjugates
Assay type: physicochemical
Conditions: goat anti-mouse IgG conjugates, excited at 350 nm, compared to AMCA; FIG. 7
Experimental: Fluorescent conjugates of goat anti-mouse IgG (GAM), goat anti-rabbit IgG (GAR), and streptavidin were prepared from the respective proteins and a reactive dye, following published procedures (U.S. Pat. No. 6,974,873; Haugland et al., Meth. Mol. Biol. 45, 205 (1995); Haugland et al., Meth. Mol. Biol. 45, 223 (1995); Haugland et al., Meth. Mol. Biol. 45, 235 (1995); Haugland et al., Current Protocols in Cell Biology, 16.5.1-16.5.22 (2000)). Briefly, an antibody or streptavidin at 1 mg/mL in […] pH 8.5 sodium bicarbonate buffer was mixed with one of the reactive dye at various ratio of dye molecules/protein molecule. After incubating for about an hour at room temperature, the reaction mixture was separated by gel filtration using Sephadex G-25 equilibrated with PBS (pH 7.4). The various dye molecules/protein ratios used in the labeling reactions produced protein conjugates with different degree of dye labeling (DOL) as listed in Table 7 below for each dye/protein pair.
The fluorescence of the conjugates was measured using a JACSO fluorescence spectrophotometer and was then plotted against the DOL to give FIGS. 4-7.
A set of goat anti-mouse IgG conjugates were prepared by labeling a portion of goat anti-mouse IgG with one of three near IR dyes. […]

| SMILES | total fluorescence vs. degree of labeling (DOL) |
| --- | --- |
| COCCOCCOCCOCCOCCOCCOCCOCCOCCOCCOCCN(CCCCCC(=O)ON1C(=O)CCC1=O)C(=O)Cc1c(C)c2ccc(N)cc2oc1=O [Compound No. 92] | higher fluorescence quantum yield over a wide of degree of labeling and has less fluorescence quenching when the antibody is at higher degrees of labeling |
